Values joined by “and” are separate entries in the source; they are usually repeats but may differ in a detail not shown here. Equal values may be shown once.
Tests used:
CCRF-CEM = assay: NCI-60 one-dose SRB screen (Leukemia); assay type: cell-based; details: Homo sapiens, single dose 10 µM, 48 h, read-out: Growth inhibition percent (GI %)
HL-60(TB) = assay: NCI-60 one-dose SRB screen (Leukemia); assay type: cell-based; details: Homo sapiens, single dose 10 µM, 48 h, read-out: Growth inhibition percent (GI %)
K-562 = assay: NCI-60 one-dose SRB screen (Leukemia); assay type: cell-based; details: Homo sapiens, K562, single dose 10 µM, 48 h, read-out: Growth inhibition percent (GI %)
MOLT-4 = assay: NCI-60 one-dose SRB screen (Leukemia); assay type: cell-based; details: Homo sapiens, single dose 10 µM, 48 h, read-out: Growth inhibition percent (GI %)
RPMI-8226 = assay: NCI-60 one-dose SRB screen (Leukemia); assay type: cell-based; details: Homo sapiens, single dose 10 µM, 48 h, read-out: Growth inhibition percent (GI %)
SR = assay: NCI-60 one-dose SRB screen (Leukemia); assay type: cell-based; details: Homo sapiens, single dose 10 µM, 48 h, read-out: Growth inhibition percent (GI %)
COLO 205 = assay: NCI-60 one-dose SRB screen (Colon Cancer); assay type: cell-based; details: Homo sapiens, single dose 10 µM, 48 h, read-out: Growth inhibition percent (GI %)
HCC-2998 = assay: NCI-60 one-dose SRB screen (Colon Cancer); assay type: cell-based; details: Homo sapiens, single dose 10 µM, 48 h, read-out: Growth inhibition percent (GI %)
HCT-116 = assay: NCI-60 one-dose SRB screen (Colon Cancer); assay type: cell-based; details: Homo sapiens, single dose 10 µM, 48 h, read-out: Growth inhibition percent (GI %)
HCT-15 = assay: NCI-60 one-dose SRB screen (Colon Cancer); assay type: cell-based; details: Homo sapiens, single dose 10 µM, 48 h, read-out: Growth inhibition percent (GI %)
HT29 = assay: NCI-60 one-dose SRB screen (Colon Cancer); assay type: cell-based; details: Homo sapiens, HT-29, single dose 10 µM, 48 h, read-out: Growth inhibition percent (GI %)
KM12 = assay: NCI-60 one-dose SRB screen (Colon Cancer); assay type: cell-based; details: Homo sapiens, single dose 10 µM, 48 h, read-out: Growth inhibition percent (GI %)
SW-620 = assay: NCI-60 one-dose SRB screen (Colon Cancer); assay type: cell-based; details: Homo sapiens, single dose 10 µM, 48 h, read-out: Growth inhibition percent (GI %)
LOX IMVI = assay: NCI-60 one-dose SRB screen (Melanoma); assay type: cell-based; details: Homo sapiens, single dose 10 µM, 48 h, read-out: Growth inhibition percent (GI %)
M14 = assay: NCI-60 one-dose SRB screen (Melanoma); assay type: cell-based; details: Homo sapiens, single dose 10 µM, 48 h, read-out: Growth inhibition percent (GI %)
MALME-3M = assay: NCI-60 one-dose SRB screen (Melanoma); assay type: cell-based; details: Homo sapiens, single dose 10 µM, 48 h, read-out: Growth inhibition percent (GI %)
MDA-MB-435 = assay: NCI-60 one-dose SRB screen (Melanoma); assay type: cell-based; details: Homo sapiens, single dose 10 µM, 48 h, read-out: Growth inhibition percent (GI %)
SK-MEL-28 = assay: NCI-60 one-dose SRB screen (Melanoma); assay type: cell-based; details: Homo sapiens, single dose 10 µM, 48 h, read-out: Growth inhibition percent (GI %)
SK-MEL-5 = assay: NCI-60 one-dose SRB screen (Melanoma); assay type: cell-based; details: Homo sapiens, single dose 10 µM, 48 h, read-out: Growth inhibition percent (GI %)
UACC-257 = assay: NCI-60 one-dose SRB screen (Melanoma); assay type: cell-based; details: Homo sapiens, single dose 10 µM, 48 h, read-out: Growth inhibition percent (GI %)
UACC-62 = assay: NCI-60 one-dose SRB screen (Melanoma); assay type: cell-based; details: Homo sapiens, single dose 10 µM, 48 h, read-out: Growth inhibition percent (GI %)
IGROV1 = assay: NCI-60 one-dose SRB screen (Ovarian cancer); assay type: cell-based; details: Homo sapiens, IGROV-1, single dose 10 µM, 48 h, read-out: Growth inhibition percent (GI %)
OVCAR-3 = assay: NCI-60 one-dose SRB screen (Ovarian cancer); assay type: cell-based; details: Homo sapiens, single dose 10 µM, 48 h, read-out: Growth inhibition percent (GI %)
OVCAR-4 = assay: NCI-60 one-dose SRB screen (Ovarian cancer); assay type: cell-based; details: Homo sapiens, single dose 10 µM, 48 h, read-out: Growth inhibition percent (GI %)
OVCAR-8 = assay: NCI-60 one-dose SRB screen (Ovarian cancer); assay type: cell-based; details: Homo sapiens, single dose 10 µM, 48 h, read-out: Growth inhibition percent (GI %)
786-0 = assay: NCI-60 one-dose SRB screen (Renal Cancer); assay type: cell-based; details: Homo sapiens, single dose 10 µM, 48 h, read-out: Growth inhibition percent (GI %)
A498 = assay: NCI-60 one-dose SRB screen (Renal Cancer); assay type: cell-based; details: Homo sapiens, single dose 10 µM, 48 h, read-out: Growth inhibition percent (GI %)
ACHN = assay: NCI-60 one-dose SRB screen (Renal Cancer); assay type: cell-based; details: Homo sapiens, single dose 10 µM, 48 h, read-out: Growth inhibition percent (GI %)
CAKI-1 = assay: NCI-60 one-dose SRB screen (Renal Cancer); assay type: cell-based; details: Homo sapiens, single dose 10 µM, 48 h, read-out: Growth inhibition percent (GI %)
RXF 393 = assay: NCI-60 one-dose SRB screen (Renal Cancer); assay type: cell-based; details: Homo sapiens, single dose 10 µM, 48 h, read-out: Growth inhibition percent (GI %)
SN12C = assay: NCI-60 one-dose SRB screen (Renal Cancer); assay type: cell-based; details: Homo sapiens, single dose 10 µM, 48 h, read-out: Growth inhibition percent (GI %)
TK-10 = assay: NCI-60 one-dose SRB screen (Renal Cancer); assay type: cell-based; details: Homo sapiens, single dose 10 µM, 48 h, read-out: Growth inhibition percent (GI %)
UO-31 = assay: NCI-60 one-dose SRB screen (Renal Cancer); assay type: cell-based; details: Homo sapiens, single dose 10 µM, 48 h, read-out: Growth inhibition percent (GI %)
DU-145 = assay: NCI-60 one-dose SRB screen (Prostate Cancer); assay type: cell-based; details: Homo sapiens, single dose 10 µM, 48 h, read-out: Growth inhibition percent (GI %)
PC-3 = assay: NCI-60 one-dose SRB screen (Prostate Cancer); assay type: cell-based; details: Homo sapiens, single dose 10 µM, 48 h, read-out: Growth inhibition percent (GI %)
BT-549 = assay: NCI-60 one-dose SRB screen (Breast Cancer); assay type: cell-based; details: Homo sapiens, single dose 10 µM, 48 h, read-out: Growth inhibition percent (GI %)
HS 578T = assay: NCI-60 one-dose SRB screen (Breast Cancer); assay type: cell-based; details: Homo sapiens, single dose 10 µM, 48 h, read-out: Growth inhibition percent (GI %)
MCF-7 = assay: NCI-60 one-dose SRB screen (Breast Cancer); assay type: cell-based; details: Homo sapiens, MCF7, single dose 10 µM, 48 h, read-out: Growth inhibition percent (GI %)
MDA-MB-231/ATCC = assay: NCI-60 one-dose SRB screen (Breast Cancer); assay type: cell-based; details: Homo sapiens, single dose 10 µM, 48 h, read-out: Growth inhibition percent (GI %)
MDA-MB-468 = assay: NCI-60 one-dose SRB screen (Breast Cancer); assay type: cell-based; details: Homo sapiens, single dose 10 µM, 48 h, read-out: Growth inhibition percent (GI %)
T-47D = assay: NCI-60 one-dose SRB screen (Breast Cancer); assay type: cell-based; details: Homo sapiens, T47D, single dose 10 µM, 48 h, read-out: Growth inhibition percent (GI %)
hCA IX = hCA IX (Homo sapiens, UniProt Q16790); assay: CA inhibitory activity, spectrophotometric p-NPA assay; assay type: biochemical; details: p-NPA substrate, pH 7.5, 25 °C, triplicate; read-out: IC50 (µM) ± SD hCA IX
hCA XII = hCA XII (Homo sapiens, UniProt O43570); assay: as above; assay type: biochemical; details: p-NPA substrate, pH 7.5, 25 °C, triplicate; read-out: IC50 (µM) ± SD hCA XII
hCA XII, sequence (O43570 25-354): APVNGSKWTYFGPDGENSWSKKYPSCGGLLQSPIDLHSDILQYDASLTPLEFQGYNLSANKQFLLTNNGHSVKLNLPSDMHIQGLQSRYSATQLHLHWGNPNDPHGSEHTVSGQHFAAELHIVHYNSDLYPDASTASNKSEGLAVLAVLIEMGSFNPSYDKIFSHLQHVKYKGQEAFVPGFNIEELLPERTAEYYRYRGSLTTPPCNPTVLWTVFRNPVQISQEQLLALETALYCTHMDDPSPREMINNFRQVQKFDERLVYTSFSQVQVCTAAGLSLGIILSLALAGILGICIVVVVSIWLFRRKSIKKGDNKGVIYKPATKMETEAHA

## COc1ccc(-c2nn(-c3ccc(S(N)(=O)=O)cc3)cc2C(=O)OCC(=O)Nc2ccc(S(N)(=O)=O)cc2)cc1 [Compound 4c, 2-Oxo-2-[(4-sulfamoylphenyl)amino] ethyl 3-(4-methoxyphenyl)-1-(4-sulfamoylphenyl)-1H-pyrazole-4-carboxylate]
CCRF-CEM
  inhibition at 10 µM: < 5%
HL-60(TB)
  inhibition at 10 µM: 13.9%
K-562
  inhibition at 10 µM: 9.61%
MOLT-4
  inhibition at 10 µM: < 5%
RPMI-8226
  inhibition at 10 µM: 9.19%
SR
  inhibition at 10 µM: < 5%
COLO 205
  inhibition at 10 µM: < 5%
HCC-2998
  inhibition at 10 µM: < 5%
HCT-116
  inhibition at 10 µM: 37.5%
HCT-15
  inhibition at 10 µM: < 5%
HT29
  inhibition at 10 µM: < 5%
KM12
  inhibition at 10 µM: < 5%
SW-620
  inhibition at 10 µM: < 5%
LOX IMVI
  inhibition at 10 µM: < 5%
M14
  inhibition at 10 µM: 43.3%
MALME-3M
  inhibition at 10 µM: < 5%
MDA-MB-435
  inhibition at 10 µM: < 5%
SK-MEL-28
  inhibition at 10 µM: < 5%
SK-MEL-5
  inhibition at 10 µM: < 5%
UACC-257
  inhibition at 10 µM: < 5%
UACC-62
  inhibition at 10 µM: < 5%
IGROV1
  inhibition at 10 µM: < 5%
OVCAR-3
  inhibition at 10 µM: < 5%
OVCAR-4
  inhibition at 10 µM: < 5%
OVCAR-8
  inhibition at 10 µM: < 5%
786-0
  inhibition at 10 µM: 28.9%
A498
  inhibition at 10 µM: < 5%
ACHN
  inhibition at 10 µM: < 5%
CAKI-1
  inhibition at 10 µM: 8.36%
RXF 393
  inhibition at 10 µM: < 5%
SN12C
  inhibition at 10 µM: < 5%
TK-10
  inhibition at 10 µM: < 5%
UO-31
  inhibition at 10 µM: 11.9%
DU-145
  inhibition at 10 µM: < 5%
PC-3
  inhibition at 10 µM: 8.81%
BT-549
  inhibition at 10 µM: 41.6%
HS 578T
  inhibition at 10 µM: < 5%
MCF-7
  inhibition at 10 µM: 8.77%
MDA-MB-231/ATCC
  inhibition at 10 µM: < 5%
MDA-MB-468
  inhibition at 10 µM: < 5%
T-47D
  inhibition at 10 µM: < 5%
hCA IX
  IC50: 0.17 µM and 0.175 µM
hCA XII
  IC50: 0.41 µM and 0.415 µM

## NS(=O)(=O)c1ccc(NC(=O)COC(=O)c2cn(-c3ccc(S(N)(=O)=O)cc3)nc2-c2ccc(Br)cc2)cc1 [Compound 4d, 2-Oxo-2-[(4-sulfamoylphenyl)amino] ethyl 3-(4-bromophenyl)-1-(4-sulfamoylphenyl)-1H-pyrazole-4-carboxylate]
CCRF-CEM
  inhibition at 10 µM: 60.2%
HL-60(TB)
  inhibition at 10 µM: 37.6%
K-562
  inhibition at 10 µM: 82.5%
MOLT-4
  inhibition at 10 µM: 60.1%
RPMI-8226
  inhibition at 10 µM: < 5%
SR
  inhibition at 10 µM: 22.9%
COLO 205
  inhibition at 10 µM: 8.46%
HCC-2998
  inhibition at 10 µM: < 5%
HCT-116
  inhibition at 10 µM: 84.6%
HCT-15
  inhibition at 10 µM: 10.6%
HT29
  inhibition at 10 µM: < 5%
KM12
  inhibition at 10 µM: < 5%
SW-620
  inhibition at 10 µM: < 5%
LOX IMVI
  inhibition at 10 µM: 47.7%
M14
  inhibition at 10 µM: 79.6%
MALME-3M
  inhibition at 10 µM: < 5%
MDA-MB-435
  inhibition at 10 µM: 60.1%
SK-MEL-28
  inhibition at 10 µM: < 5%
SK-MEL-5
  inhibition at 10 µM: 14.3%
UACC-257
  inhibition at 10 µM: < 5%
UACC-62
  inhibition at 10 µM: 11.9%
IGROV1
  inhibition at 10 µM: < 5%
OVCAR-3
  inhibition at 10 µM: 23%
OVCAR-4
  inhibition at 10 µM: 34.6%
OVCAR-8
  inhibition at 10 µM: < 5%
786-0
  inhibition at 10 µM: 86.5%
A498
  inhibition at 10 µM: 16.8%
ACHN
  inhibition at 10 µM: < 5%
CAKI-1
  inhibition at 10 µM: 63.5%
RXF 393
  inhibition at 10 µM: < 5%
SN12C
  inhibition at 10 µM: 11.8%
TK-10
  inhibition at 10 µM: < 5%
UO-31
  inhibition at 10 µM: 23.2%
DU-145
  inhibition at 10 µM: < 5%
PC-3
  inhibition at 10 µM: 23.1%
BT-549
  inhibition at 10 µM: 79.9%
HS 578T
  inhibition at 10 µM: 36.9%
MCF-7
  inhibition at 10 µM: 56.4%
MDA-MB-231/ATCC
  inhibition at 10 µM: 33.9%
MDA-MB-468
  inhibition at 10 µM: 66.5%
T-47D
  inhibition at 10 µM: 52.3%
hCA IX
  IC50: 0.5 µM and 0.509 µM
hCA XII
  IC50: 0.81 µM and 0.814 µM
